The test system of series [1] is homogenate of the jejunum of a rat. The series can be described thus: in vitro. Conditions: 0 min, pH 6. On the procedure:
(§1) 5 cm of jejunum is removed from a male Sprague Dawley rat (previously put on a diet for 25 hours) and rinsed with a solution of physiological serum.
(§2) The jejunum (weighing about 150 mg) is pulverized in the presence of 0.9% NaCl (w/v) using a "Polytron" type homogenizer then the pulverized product is brought to 10 ml (with 0.9% NaCl solution).
(§3) The reaction mixture containing 2 ml of fructosyl oligosaccharide solution and 2 ml of homogenate is incubated for 24 hours at 37° C., under magnetic agitation.
(§4) In a second series of tests, the evolution of the composition of the fructosyl oligosaccharide is followed over a period of time by inverse plane HPLC (Nucleosil C18 column--eluent: water), the control sugar still being saccharose.

A short description of series [2]: in vitro. Conditions: rat, jejunum homogenate, pH 6. On the procedure: as §1, §2, §3, §4
Series [3] relates to homogenate of the jejunum of a rat. The series can be described thus: in vitro. The format is in vitro ADME. To be noted: 0 min, pH 6. How it is done: (§5) Then the products are dissolved in a 0.05M sodium phosphate (buffer pH 6.0), so as to have a molar concentration of […]. […] The reaction mixture containing 2 ml of fructosyl oligosaccharide solution and 2 ml of homogenate is incubated for 24 hours at 37° C., under magnetic agitation. Samples are taken at regular intervals, and the intestinal enzymes are thermally inactivated. A parallel test is carried out on a control solution containing saccharose.

Series [4] can be described thus: in vitro. The format is in vitro ADME. To be noted: rat, jejunum homogenate, pH 6. How it is done: as §5
Series [5] concerns homogenate of human jejunal mucous. Nature of the series: in vitro. The format is in vitro ADME. Conditions: 0 min. How it is done: (§6) The preparation is identical to that given in Example 2, paragraph 2.1. The jejunal mucous (about 40 mg) is homogenized in the presence of a 0.9% aqueous solution of NaCl (weight/volume) using a "Polytron" type homogenizer. The homogenate is then brought to 12 ml (with the 0.9% solution of NaCl). The reaction mixture containing 2 ml of fructosyl oligosaccharide solution and 2 ml of homogenate is incubated for 24 hours at 37° C. under magnetic agitation. Samples are taken at regular intervals and the intestinal enzymes are thermally inactivated. A parallel test is carried out on a control solution containing saccharose. […] [formula]

Series [6] in a line: in vitro. The format is in vitro ADME. To be noted: human, jejunal mucous homogenate. How it is done: as §6
Series [7] has as its system alpha amylase of human saliva. Nature of the series: Hydrolysis test with alpha amylase of human saliva. The format is in vitro ADME. Conditions: substrate 3 g/liter, pH 7.0, 17.8 units enzyme, 2 hours at 37° C. On the procedure:
After 2 hours, the reaction is stopped by heating.

The subject of series [8] is alpha amylase from the pancreas of a pig. The series can be described thus: Hydrolysis test with alpha amylase of the pancreas of a pig. Conditions: substrate 3 g/liter, pH 7.0, 19 units enzyme, 2 hours at 37° C. How it is done: The product is then dissolved is a 0.1M sodium phosphate buffer, (pH 7.0), so as to obtain a final concentration of 3 g/liter of fructosyl oligosaccharide. A mixture containing 2 ml of fructosyl oligosaccharide solution (prepared as above in 1.1) and 19 units of alpha amylase from the pancreas of a pig (SIGMA Ref […]) is incubated for 2 hours at 37° C. The reaction is stopped by heating. The glucose which has appeared is measured by the enzymatic method with glucose oxidase/peroxidase (Boehringer test Ref. 124036). A control test is carried out with maltodextrins, type glucidex 21 (Societe Roquette, France). The results are given in micromoles of glucose formed per enzyme unit and per hour.

Structures are written as SMILES.

For `OC[C@H]1O[C@@](CO)(O[C@H]2O[C@H](CO)[C@@H](O)[C@H](O)[C@H]2O)[C@@H](O)[C@@H]1O` [Saccharose, saccharose, reference compound], the “Composition in carbohydrate %: Saccharose” value in series [1] came out at 100%. Besides, the amount remaining (as a rule, what is left of the initial amount, in per cent) at 24 h in “in vitro [2]” amounted to 4%. Besides, the “DH % (degree of hydrolysis)” value in series [3] is 0%. Also, in the series “in vitro [4]”, the metabolised at 8.5 h was 57.6%, the metabolised at 17.5 h amounted to 66.7% and the metabolised at 24 h is 92.7%. Besides, the “DH % (degree of hydrolysis)” value in series [5] is 0%. In the series “in vitro [6]”, this compound displayed a metabolised at 10 h of 57.1% and a metabolised at 24 h of 88%.

As for `OC[C@H]1O[C@@](CO)(O[C@H]2O[C@H](CO[C@@H]3O[C@H](CO)[C@@H](O)[C@H](O)[C@H]3O)[C@@H](O)[C@H](O)[C@H]2O)[C@@H](O)[C@@H]1O` [Gentiobiofructose, gentiobiofructose], in series [7], the “Activity of the alpha amylase of human saliva” value is on record as 0 micromoles of glucose formed p. Further, the “Activity of the alpha amylase from the pancreas of a pig” value in series [8] is 0 micromoles of glucose formed p. Moreover, the “Composition in carbohydrate %: Gentiobiofructose” value in series [1] stood at 100%. For the same compound, in “in vitro [2]”, the amount remaining at 8.5 h is 100% and the fraction remaining at 24 h came out at 99.6%. In series [3], the “DH % (degree of hydrolysis)” value worked out at 0%. In the series “in vitro [4]”, this compound came in with a metabolised at 8.5 h of 0%, a metabolised at 17.5 h of 0.4% and a metabolised at 24 h of 0.4%. Further, the “DH % (degree of hydrolysis)” value in series [5] is recorded as 0%. In “in vitro [6]”, this compound returned a metabolised at 10 h of 0% and a metabolised at 24 h of 0%.

For `OC[C@H]1O[C@@](CO)(O[C@H]2O[C@H](CO)[C@@H](O[C@@H]3O[C@H](CO)[C@@H](O)[C@H](O)[C@H]3O)[C@H](O)[C@H]2O)[C@@H](O)[C@@H]1O` [Cellobiofructose, cellobiofructose], in series [7], the “Activity of the alpha amylase of human saliva” value is listed as 0 micromoles of glucose formed p. The “Activity of the alpha amylase from the pancreas of a pig” value in series [8] is 0 micromoles of glucose formed p. The “Composition in carbohydrate %: Cellobiofructose” value in series [1] worked out at 100%. In “in vitro [2]”, the share remaining at 8.5 h was determined as 97% and the amount remaining at 24 h came to 93.6%. Moreover, the “DH % (degree of hydrolysis)” value in series [3] amounted to 0%. In the series “in vitro [4]”, this compound showed a metabolised at 8.5 h of 0%, a metabolised at 17.5 h of 3.7% and a metabolised at 24 h of 5.4%. The “DH % (degree of hydrolysis)” value in series [5] was found to be 0%. Also, in “in vitro [6]”, the metabolised at 10 h turned out to be 0% and the metabolised at 24 h amounted to 0%.

Values taken from patent publication US4978751A, “Low-calorie sweeteners of fructosyl oligosaccharides and the food or dietetic products or drinks containing them” (Roussel-Ulcaf, priority 1988, dated 1990).
